Tests used:
[1] = system: SNO-oesophageal cancer cells; test: Morphological features of SNO-oesophageal cancer cells by inverse light microscopy; assay type: cell-based; details: 24 hours of treatment
Protocol: Morphological studies were done by means of an Axiovert 25 inverted microscope (Carl Zeiss, Göttingen, Germany) with Axio Vision 3.1 software (Carl Zeiss, Göttingen, Germany) using an magnification of 100×.
After 24 hours of treatment with complexes (1)-(5) including their ligands the cells were examined under said Axiovert 25 inverted light microscope. This was done to determine how the complexes of the present invention influence morphology which was compared to 100 μM Cisplatin (apoptotic control) and 15% H2O2 (necrotic control).
Light microscope images indicating the morphology of the differentially treated SNO-oesophageal cancer cells is shown in FIG. 8. An untreated control (a) including 100 μM Cisplatin (b), an apoptotic control and 15% H2O2 (c), and a necrotic control was included. Cells were treated with 10 μM silver(I) thiocyanate phosphine complexes (1)-(5) as well as their separate ligands (Ligand-1 to Ligand-5, respectively) (FIGS. 8d to 8m). Black arrows represent signs of apoptosis, while the white arrows represent signs of necrosis.
An Axiovert 25 inverted microscope was used to examine if these complexes affect the morphological features of the malignant cells in any other way. This was done at a magnification of 100× with the use of Axio Version 3.1 software (Carl Zeiss, Gottingen, Germany).
Morphological studies where done after 24 hours of treatment to determine how these compounds influence/change specific features of the malignant SNO-oesophageal cancer cells, compared to the untreated (UC) and 1% DMSO vehicle control. The treated cancer cells including their controls were examined under an Axiovert 25 inverted light microscope (Carl Zeiss, Göttingen, Germany) with Axio Vision 3.1 software (Carl Zeiss, Göttingen, Germany) using a 100× magnification. In FIG. 19, the morphology of the different controls including Ligand-10 and complexes (10)-(12) are represented. To predict the targeting mechanisms of these compounds, the treated cells were compared to 100 μM Cisplatin (apoptotic control) and 25% H2O2 (necrotic control).

[2] = system: SNO-oesophageal cancer cells; assay type: cell-based; details: for cancer cell death compared to the vehicle control: 14 μM, 24 hour treatment
[3] = system: SNO-oesophageal cancer cells; test: Flow cytometric analysis (Annexin-V FITC / PI) of apoptosis and/or necrosis in SNO-oesophageal cancer cells; assay type: cell-based; details: 14 μM, 24 hours
Protocol: To determine if either apoptosis or necrosis occurred, the cells were double labelled with Annexin-V FITC and Propidium Iodide (PI) by means of an Annexin-V FITC assay kit (Serotec, UK). This was done according to manufacturer's instructions with a few adjustments. Briefly, the cells (±3×10^5 cells/ml) were washed twice with cold phosphate buffered saline (PBS), followed by the addition of 100 μl 1× binding buffer. Two and a half microliters of Annexin-V along with 5 μl PI were added in the dark and was incubated for 15 minutes at room temperature. After incubation, 400 μl 1× binding buffer was added and cells were analysed using the FACSAria flow cytometer (BD Biosciences, San Jose, Calif.) with FACSDiva software (BD Biosciences, San Jose, Calif.) 492 nm (excitation) and 520 nm for Annexin and 488 nm and 575 nm(emission) for PI.
The cell membrane contains a negatively charged phosphatidylserine (PS) on the inner leaflet and is exposed when apoptosis or necrosis takes place. Annexin-V interacts with PS in both apoptotic and necrotic cells, making these cellular deaths undistinguishable. This is overcome by using PI as an alternative label that interacts with the exposed DNA of necrotic cells only, leading to the fluorescent detection of both these labels. Pie charts (FIG. 9) were constructed for all the controls (including Ligand-1 to Ligand-5) and the different silver(I) thiocyanate phosphine complexes (1)-(5).
Pie charts representing the four different flow cytometric quadrants of Annexin-V and […] to determine the mode of cellular death induced in differentially treated SNO-oesophageal cells are represented in FIG. 9. An untreated control (A), apoptotic control (B) and necrotic control (C) were included. Cells were treated with 10 μM of the different ligands including the silver(I) thiocyanate phosphine complexes (1)-(5). An average percentage was calculated for all segments where the SEM is n=3 for all treatments except for 15% H2O2 (n=2). The four segments represent the following: White segment—negative for FITC and PI, Light grey segment—positive for FITC but negative for PI, Dark grey segment—positive for PI but negative for FITC and Black segment—positive for both FITC and PI. Cells undergoing early apoptosis are represented by the light grey segment, while those of late apoptosis and primary necrosis are represented by the black segment. Necrotic cells are represented by the dark grey segment and intact viable cells are shown by the white segment.
Approximately 3×10^5 cells were washed with ice cold phosphate buffered saline solution (PBS). The cells were double labeled using an Annexin-V FITC assay kit adjusting the protocol. A 1× binding buffer (100 μl) was used to fix the cells. Annexin-V (2.5 μl) and Propidium Iodide (PI—5 μl) labels were added respectively followed by a 15 minute incubation, at room temperature, in the dark. After the incubation period, 400 μl of the 1× binding buffer was added, where counting of the cellular events was made using an FACSAria flow cytometer (BD Biosciences, San Jose, Calif.) with FACSDiva software (BD Biosciences, San Jose, Calif.). This technique in particular identifies whether predicted apoptotic cell death (or necrosis) was induced by these complexes.
As observed in FIG. 14, dot blots represent the mode of cellular death induced in the SNO-oesophageal cancer cells after 24 hours of treatment. FIG. 14(a): 0.1% DMSO, FIG. 14(b): 100 μM CDDP, FIG. 14(c): 25% H2O2, FIG. 14(d-i): complexes (6)-(9). An average percentage was calculated for all quadrants where the SEM is n=2 for all treatments. The four quadrants represent the following: Quadrant Q3 is negative for FITC and PI, Quadrant Q4 is positive for FITC but negative for PI, Quadrant Q1 is positive for PI but negative for FITC and Quadrant Q2 is positive for both FITC and PI. Cells undergoing early apoptosis are more likely to be found in Quadrant Q4 while those of late apoptosis and primary necrosis will be found in Quadrant Q2. […]

[4] = system: MCF-7 breast cancer cells; test: AlamarBlue viability and proliferation assay of MCF-7 breast cancer cells; assay type: cell-based, human
Protocol: For the biological studies, MCF-7 breast cancer cells were obtained from an immortal cell line from human adenocarcinoma from (primary site) mammary gland and (metastatic site) pleural effusion (ATCC no HTB-22).
MCF-7 breast cancer cells were cultured in Dulbecco's modified Eagle's medium (DMEM), 13.53 g/L with sodium bicarbonate (NaHCO3), 3.7 g/L supplemented with 10% foetal bovine serum (FBS), 1% gentamycin and 5% Penicillin/Streptomycin/Fungizone in 75 cm^3 culture flasks. Cells were subcultured twice a week and incubated at 37° C. with 5% CO2 in a humidified atmosphere. Hanks balanced salt solution (HBSS), supplemented DMEM media and trypsin versene were warmed to 37° C. prior to subculturing. Cells were washed twice with 10 ml Hanks balanced salt solution for 1 minute and were then incubated for 4.5 to 5 minutes at 37° C. with 6 ml trypsin versene to remove the cells from the culture flask. To inactivate the trypsin versene, 10 ml supplemented DMEM was added and the cells were pelleted by centrifugation at 1028 g for 4 minutes with an Allegra™ 25R Centrifuge. The pellet was resuspended in 1 ml supplemented DMEM and 500 μl of the cell suspension was then added to 25 ml of supplemented DMEM media in 75 cm^3 culture flasks.
MCF-7 breast cancer cells, in terms of a first study, and SNO-oesophageal cancer cells, in terms of a second study, were treated with 10 μM silverthiocyanide complexes (1)-(5), as well as their ligands (Ligand-1 to Ligand-5) over a 24 hour incubation period. […] An untreated negative control (UT) was exposed to similar conditions as the treated cells and monitored during the experimental study.
The AlamarBlue® viability and proliferation assay of complexes (1)-(5) for the MCF-7 breast cancer cells is depicted in FIGS. 1A to 1F. The percentage viability of control samples determined by the AlamarBlue® viability and proliferation assay is depicted in FIG. 1A. […] A significant difference (P<0.001) between the control and the treated samples was calculated using Student's T-test and is indicated by an asterisk.
(§1) This Figure depicts the percentage viability of MCF-7 cells treated with various concentrations of complex (1) as determined by the AlamarBlue® viability and proliferation assay. […] The asterisk indicates a significant difference between a sample and the control (P<0.001) as calculated with Student's T-test.
as §1, with “FIG. 1C to FIG. 1F represent the dose dependant studies of complexes (2) to (5), respectively. In each of these Figures,” for “This Figure depicts”, “complexes (2) to (5) was” for “complex (1) as”, “T-test. […]” for “T-test.”

## AgCN(PPh3)3 [complex (12)]
[1]; 14 μM
  necrotic cell death (morphology): Minimal necrotic cell death
  signs of apoptosis / cell death (morphology): multiple signs of apoptosis
[2]
  cancer cell death compared to the vehicle control: significantly induced cancer cell death

## [Br][Ag]([PH](c1ccccc1)(c1ccccc1)c1ccccc1)([PH](c1ccccc1)(c1ccccc1)c1ccccc1)[PH](c1ccccc1)(c1ccccc1)c1ccccc1 [complex (11), AgBr(PPh3)3]
[1]; 14 μM
  necrotic cell death (morphology): Minimal necrotic cell death
  signs of apoptosis / cell death (morphology): multiple signs of apoptosis
[3]
  apoptotic cells (early and late stages), flow cytometry: 47.23%
  necrotic cells positive for PI, flow cytometry: 14.73%
[2]
  cancer cell death compared to the vehicle control: significantly induced cancer cell death

## c1ccc(P(c2ccccc2)c2ccccc2)cc1 [Ligand-10, PPh3, reference compound]
[1]; 14 μM
  signs of apoptosis / cell death (morphology): minimal cell death similar to apoptosis
[3]
  influence on cellular viability and PS externalisation, flow cytometry: did not influence
[2]; 14 µM
  viability: 99.03%

## Cc1ccc([P+](c2ccc(C)cc2)(c2ccc(C)cc2)[Ag]2([P+](c3ccc(C)cc3)(c3ccc(C)cc3)c3ccc(C)cc3)[N+]#C[S][Ag]([P+](c3ccc(C)cc3)(c3ccc(C)cc3)c3ccc(C)cc3)([P+](c3ccc(C)cc3)(c3ccc(C)cc3)c3ccc(C)cc3)[N+]#C[S]2)cc1 [complex (2), [AgSCN{P(4-MeC6H4)3}2]2]
[4]; 10 μM, 24 hours after treatment, compared to the untreated control
  decrease in viability and proliferation: ~70%
[1]; 10 μM
  necrotic cell death (morphology): Necrotic cell death was also observed

## [Cl][Ag]([PH](c1ccccc1)(c1ccccc1)c1ccccc1)([PH](c1ccccc1)(c1ccccc1)c1ccccc1)[PH](c1ccccc1)(c1ccccc1)c1ccccc1 [complex (10), AgCl(PPh3)3]
[1]; 14 μM
  necrotic cell death (morphology): Minimal necrotic cell death
  signs of apoptosis / cell death (morphology): multiple signs of apoptosis
[2]
  cancer cell death compared to the vehicle control: significantly induced cancer cell death

## Clc1ccc([P+](c2ccc(Cl)cc2)(c2ccc(Cl)cc2)[Ag]2([P+](c3ccc(Cl)cc3)(c3ccc(Cl)cc3)c3ccc(Cl)cc3)[N+]#C[S][Ag]([P+](c3ccc(Cl)cc3)(c3ccc(Cl)cc3)c3ccc(Cl)cc3)([P+](c3ccc(Cl)cc3)(c3ccc(Cl)cc3)c3ccc(Cl)cc3)[N+]#C[S]2)cc1 [complex (4), [AgSCN{P(4-ClC6H4)3}2]2]
[4]; MCF-7 cells
  cytotoxic activity (ranking): strongest

Source: US10583109B2, “Use of silver(I) complexes as anticancer agents” (University of Johannesburg, priority 2012, dated 2020)
